Data as given in ChEMBL document CHEMBL4627246, “Pyroglutamide-Based P2X7 Receptor Antagonists Targeting Inflammatory Bowel Disease” (J Med Chem, 2020).

These compounds were tested on SK-MEL-2 (assay: Cytotoxicity against human SK-MEL-2 cells assessed as effect on cell growth at 10 uM incubated for 48 hrs by sulforhodamine B assay). Conditions: sk-mel-2, 48 h.
Format: cell-based

Structure (SMILES)	Activity
COc1ccc(CNC(=O)[C@@H]2CCC(=O)N2Cc2ccc(Cl)cc2Cl)c(OC)c1	Non-Toxic
O=C(NCc1ccccc1Cl)[C@@H]1CCC(=O)N1Cc1ccccc1	Non-Toxic
O=C(NCc1ccc(Cl)cc1Cl)[C@@H]1CCC(=O)N1c1cccs1	Non-Toxic

These compounds were tested on SN12C (assay: Cytotoxicity against human SN12C cells assessed as effect on cell growth at 10 uM incubated for 48 hrs by sulforhodamine B assay). Conditions: not given.
Format: cell-based

Structure (SMILES)	Activity
COc1ccc(CNC(=O)[C@@H]2CCC(=O)N2Cc2ccc(Cl)cc2Cl)c(OC)c1	Non-Toxic
O=C(NCc1ccccc1Cl)[C@@H]1CCC(=O)N1Cc1ccccc1	Non-Toxic
O=C(NCc1ccc(Cl)cc1Cl)[C@@H]1CCC(=O)N1c1cccs1	Non-Toxic

The compounds below were run on MDA-MB-231 (assay: Cytotoxicity against human MDA-MB-231 cells assessed as effect on cell growth at 10 uM incubated for 48 hrs by sulforhodamine B assay). Conditions: mda-mb-231, 48 h.
Format: cell-based

Structure (SMILES)	Activity
COc1ccc(CNC(=O)[C@@H]2CCC(=O)N2Cc2ccc(Cl)cc2Cl)c(OC)c1	Non-Toxic
O=C(NCc1ccccc1Cl)[C@@H]1CCC(=O)N1Cc1ccccc1	Non-Toxic
O=C(NCc1ccc(Cl)cc1Cl)[C@@H]1CCC(=O)N1c1cccs1	Non-Toxic

These compounds were tested on K562 (assay: Cytotoxicity against human K562 cells assessed as effect on cell growth at 10 uM incubated for 48 hrs by sulforhodamine B assay). Conditions: k562, 48 h.
Format: cell-based

Structure (SMILES)	Activity
COc1ccc(CNC(=O)[C@@H]2CCC(=O)N2Cc2ccc(Cl)cc2Cl)c(OC)c1	Non-Toxic
O=C(NCc1ccccc1Cl)[C@@H]1CCC(=O)N1Cc1ccccc1	Non-Toxic
O=C(NCc1ccc(Cl)cc1Cl)[C@@H]1CCC(=O)N1c1cccs1	Non-Toxic

These compounds were tested on NCI-H226 (assay: Cytotoxicity against human NCI-H226 cells assessed as effect on cell growth at 10 uM incubated for 48 hrs by sulforhodamine B assay). Conditions: nci-h226, 48 h.
Format: cell-based

Structure (SMILES)	Activity
COc1ccc(CNC(=O)[C@@H]2CCC(=O)N2Cc2ccc(Cl)cc2Cl)c(OC)c1	Non-Toxic
O=C(NCc1ccccc1Cl)[C@@H]1CCC(=O)N1Cc1ccccc1	Non-Toxic
O=C(NCc1ccc(Cl)cc1Cl)[C@@H]1CCC(=O)N1c1cccs1	Non-Toxic

These compounds were tested on RXF 393 (assay: Cytotoxicity against human RXF393 cells assessed as effect on cell growth at 10 uM incubated for 48 hrs by sulforhodamine B assay). Conditions: rxf 393, 48 h.
Format: cell-based

Structure (SMILES)	Activity
COc1ccc(CNC(=O)[C@@H]2CCC(=O)N2Cc2ccc(Cl)cc2Cl)c(OC)c1	Non-Toxic
O=C(NCc1ccccc1Cl)[C@@H]1CCC(=O)N1Cc1ccccc1	Non-Toxic
O=C(NCc1ccc(Cl)cc1Cl)[C@@H]1CCC(=O)N1c1cccs1	Non-Toxic

These compounds were tested on MDA-MB-435 (assay: Cytotoxicity against human MDA-MB-435 cells assessed as effect on cell growth at 10 uM incubated for 48 hrs by sulforhodamine B assay). Conditions: mda-mb-435, 48 h.
Format: cell-based

Structure (SMILES)	Activity
COc1ccc(CNC(=O)[C@@H]2CCC(=O)N2Cc2ccc(Cl)cc2Cl)c(OC)c1	Non-Toxic
O=C(NCc1ccccc1Cl)[C@@H]1CCC(=O)N1Cc1ccccc1	Non-Toxic
O=C(NCc1ccc(Cl)cc1Cl)[C@@H]1CCC(=O)N1c1cccs1	Non-Toxic

The compounds below were run on HOP-62 (assay: Cytotoxicity against human HOP62 cells assessed as effect on cell growth at 10 uM incubated for 48 hrs by sulforhodamine B assay). Conditions: hop-62, 48 h.
Format: cell-based

Structure (SMILES)	Activity
COc1ccc(CNC(=O)[C@@H]2CCC(=O)N2Cc2ccc(Cl)cc2Cl)c(OC)c1	Non-Toxic
O=C(NCc1ccccc1Cl)[C@@H]1CCC(=O)N1Cc1ccccc1	Non-Toxic
O=C(NCc1ccc(Cl)cc1Cl)[C@@H]1CCC(=O)N1c1cccs1	Non-Toxic

These compounds were tested on SF-268 (assay: Cytotoxicity against human SF268 cells assessed as effect on cell growth at 10 uM incubated for 48 hrs by sulforhodamine B assay). Conditions: sf-268, 48 h.
Format: cell-based

Structure (SMILES)	Activity
COc1ccc(CNC(=O)[C@@H]2CCC(=O)N2Cc2ccc(Cl)cc2Cl)c(OC)c1	Non-Toxic
O=C(NCc1ccccc1Cl)[C@@H]1CCC(=O)N1Cc1ccccc1	Non-Toxic
O=C(NCc1ccc(Cl)cc1Cl)[C@@H]1CCC(=O)N1c1cccs1	Non-Toxic

The compounds below were run on SK-MEL-28 (assay: Cytotoxicity against human SK-MEL-28 cells assessed as effect on cell growth at 10 uM incubated for 48 hrs by sulforhodamine B assay). Conditions: sk-mel-28, 48 h.
Format: cell-based

Structure (SMILES)	Activity
COc1ccc(CNC(=O)[C@@H]2CCC(=O)N2Cc2ccc(Cl)cc2Cl)c(OC)c1	Non-Toxic
O=C(NCc1ccccc1Cl)[C@@H]1CCC(=O)N1Cc1ccccc1	Non-Toxic
O=C(NCc1ccc(Cl)cc1Cl)[C@@H]1CCC(=O)N1c1cccs1	Non-Toxic

Each compound was assayed on OVCAR-4 (assay: Cytotoxicity against human OVCAR4 cells assessed as effect on cell growth at 10 uM incubated for 48 hrs by sulforhodamine B assay). Conditions: ovcar-4, 48 h.
Format: cell-based

Structure (SMILES)	Activity
COc1ccc(CNC(=O)[C@@H]2CCC(=O)N2Cc2ccc(Cl)cc2Cl)c(OC)c1	Non-Toxic
O=C(NCc1ccccc1Cl)[C@@H]1CCC(=O)N1Cc1ccccc1	Non-Toxic
O=C(NCc1ccc(Cl)cc1Cl)[C@@H]1CCC(=O)N1c1cccs1	Non-Toxic

These compounds were tested on UACC-257 (assay: Cytotoxicity against human UACC257 cells assessed as effect on cell growth at 10 uM incubated for 48 hrs by sulforhodamine B assay). Conditions: uacc-257, 48 h.
Format: cell-based

Structure (SMILES)	Activity
COc1ccc(CNC(=O)[C@@H]2CCC(=O)N2Cc2ccc(Cl)cc2Cl)c(OC)c1	Non-Toxic
O=C(NCc1ccccc1Cl)[C@@H]1CCC(=O)N1Cc1ccccc1	Non-Toxic
O=C(NCc1ccc(Cl)cc1Cl)[C@@H]1CCC(=O)N1c1cccs1	Non-Toxic

The compounds below were run on BT-549 (assay: Cytotoxicity against human BT549 cells assessed as effect on cell growth at 10 uM incubated for 48 hrs by sulforhodamine B assay). Conditions: bt-549, 48 h.
Format: cell-based

Structure (SMILES)	Activity
COc1ccc(CNC(=O)[C@@H]2CCC(=O)N2Cc2ccc(Cl)cc2Cl)c(OC)c1	Non-Toxic
O=C(NCc1ccccc1Cl)[C@@H]1CCC(=O)N1Cc1ccccc1	Non-Toxic
O=C(NCc1ccc(Cl)cc1Cl)[C@@H]1CCC(=O)N1c1cccs1	Non-Toxic

What follows are compounds tested on OVCAR-3 (assay: Cytotoxicity against human OVCAR3 cells assessed as effect on cell growth at 10 uM incubated for 48 hrs by sulforhodamine B assay). Conditions: ovcar-3, 48 h.
Format: cell-based

Structure (SMILES)	Activity
COc1ccc(CNC(=O)[C@@H]2CCC(=O)N2Cc2ccc(Cl)cc2Cl)c(OC)c1	Non-Toxic
O=C(NCc1ccccc1Cl)[C@@H]1CCC(=O)N1Cc1ccccc1	Non-Toxic
O=C(NCc1ccc(Cl)cc1Cl)[C@@H]1CCC(=O)N1c1cccs1	Non-Toxic

Each compound was assayed on MCF7 (assay: Cytotoxicity against human MCF7 cells assessed as effect on cell growth at 10 uM incubated for 48 hrs by sulforhodamine B assay). Conditions: mcf7, 48 h.
Format: cell-based

Structure (SMILES)	Activity
COc1ccc(CNC(=O)[C@@H]2CCC(=O)N2Cc2ccc(Cl)cc2Cl)c(OC)c1	Non-Toxic
O=C(NCc1ccccc1Cl)[C@@H]1CCC(=O)N1Cc1ccccc1	Non-Toxic
O=C(NCc1ccc(Cl)cc1Cl)[C@@H]1CCC(=O)N1c1cccs1	Non-Toxic

Each compound was assayed on Hs-578T (assay: Cytotoxicity against human Hs 578T cells assessed as effect on cell growth at 10 uM incubated for 48 hrs by sulforhodamine B assay). Conditions: not given.
Format: cell-based

Structure (SMILES)	Activity
COc1ccc(CNC(=O)[C@@H]2CCC(=O)N2Cc2ccc(Cl)cc2Cl)c(OC)c1	Non-Toxic
O=C(NCc1ccccc1Cl)[C@@H]1CCC(=O)N1Cc1ccccc1	Non-Toxic
O=C(NCc1ccc(Cl)cc1Cl)[C@@H]1CCC(=O)N1c1cccs1	Non-Toxic

These compounds were tested on CAKI-1 (assay: Growth inhibition of human Caki1 cells assessed as growth percentage at 10 uM incubated for 48 hrs by sulforhodamine B assay). Conditions: caki-1, 48 h.
Format: cell-based

Structure (SMILES)	Activity
COc1ccc(CNC(=O)[C@@H]2CCC(=O)N2Cc2ccc(Cl)cc2Cl)c(OC)c1	Non-Toxic
O=C(NCc1ccccc1Cl)[C@@H]1CCC(=O)N1Cc1ccccc1	Non-Toxic
O=C(NCc1ccc(Cl)cc1Cl)[C@@H]1CCC(=O)N1c1cccs1	Non-Toxic

Each compound was assayed on CCRF-CEM (assay: Cytotoxicity against human CCRF-CEM cells assessed as effect on cell growth at 10 uM incubated for 48 hrs by sulforhodamine B assay). Conditions: not given.
Format: cell-based

Structure (SMILES)	Activity
COc1ccc(CNC(=O)[C@@H]2CCC(=O)N2Cc2ccc(Cl)cc2Cl)c(OC)c1	Non-Toxic
O=C(NCc1ccccc1Cl)[C@@H]1CCC(=O)N1Cc1ccccc1	Non-Toxic
O=C(NCc1ccc(Cl)cc1Cl)[C@@H]1CCC(=O)N1c1cccs1	Non-Toxic

Each compound was assayed on SK-MEL-5 (assay: Cytotoxicity against human SK-MEL-5 cells assessed as effect on cell growth at 10 uM incubated for 48 hrs by sulforhodamine B assay). Conditions: sk-mel-5, 48 h.
Format: cell-based

Structure (SMILES)	Activity
COc1ccc(CNC(=O)[C@@H]2CCC(=O)N2Cc2ccc(Cl)cc2Cl)c(OC)c1	Non-Toxic
O=C(NCc1ccccc1Cl)[C@@H]1CCC(=O)N1Cc1ccccc1	Non-Toxic
O=C(NCc1ccc(Cl)cc1Cl)[C@@H]1CCC(=O)N1c1cccs1	Non-Toxic

Each compound was assayed on LOX IMVI (assay: Cytotoxicity against human LOXIMVI cells assessed as effect on cell growth at 10 uM incubated for 48 hrs by sulforhodamine B assay). Conditions: not given.
Format: cell-based

Structure (SMILES)	Activity
COc1ccc(CNC(=O)[C@@H]2CCC(=O)N2Cc2ccc(Cl)cc2Cl)c(OC)c1	Non-Toxic
O=C(NCc1ccccc1Cl)[C@@H]1CCC(=O)N1Cc1ccccc1	Non-Toxic
O=C(NCc1ccc(Cl)cc1Cl)[C@@H]1CCC(=O)N1c1cccs1	Non-Toxic
